This passage reports GI50, IC50 and inhibition in vivo results from US20220024921A1, “1,3,4-OXADIAZOLONE COMPOUND AND PHARMACEUTICAL” (NIPPON SHINYAKU CO., LTD., priority 2018, published 2022).

Molecules are shown by their SMILES. Structures can show the parent of a compound that is named as a salt.

In test [1] the target is PIM1 transgenic cells (Ba/F3) (Homo sapiens, UniProt P11309). The test can be described thus: Proliferation inhibitory effect on PIM1 transgenic cells. It counts as cell-based, mouse. The following applies: proliferation inhibition, 72 hours, Cell Counting Kit-8, read-out: PIM1 IC50. In short, it runs like this: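 Mouse Ba/F3 pro-B cells were retrovirally transduced with human PIM1 so that their proliferation depends on PIM1. Cells were treated with compound at 1–10000 nM final for 72 h, then read by CCK-8 (OD450−OD650). Inhibition was set against DMSO (0%) and no-cell blank (100%), and IC50 was obtained by two-parameter logistic regression.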

For test [2], the target named is T1, PIM2 serine/threonine kinase (Homo sapiens, UniProt Q9P1W9).
T1 construct: purchased Carna Bioscience, Inc
As to the kind of experiment: PIM2 serine/threonine kinase inhibitory effect. It counts as biochemical. The conditions noted are these: PIM2 serine/threonine kinase activity; ATP 2 μM; 30° C., 30 minutes. The protocol:
(§1) Each test substance was prepared to 10 mM with dimethylsulfoxide (DMSO), and further diluted with DMSO so as to have concentrations of 1000, 300, 100, 30, 10, 3, 1, 0.3, 0.1, 0.03, 0.01, and 0.001 μM. Moreover, each dilution was further diluted 33.3-fold with an assay buffer to prepare a test substance solution. The composition of the assay buffer was 50 mM HEPES (pH 7.0), 0.02% NaN3, 0.01% Bovine Serum Albumin, 0.1 mM Orthovanadate, 1 mM Dithiothreitol, and 5 mM MgCl2.
(§2) 5 μL of each test substance solution was added to 384-well plates (n=2), and then 2.5 μL of a substrate solution (substrate 3-biotin (Cisbio Bioassays SAS), final concentration in the reaction solution: 0.5 μM) and 2.5 μL of an ATP solution (in the cases of PIM1, 2, 3, the final concentrations in the reaction solutions were 40, 2, and 10 μM, respectively) were added, 5 μL of each of PIM1, 2, 3 serine/threonine kinase solutions (Carna Bioscience, Inc., the final concentrations in the reaction solutions were 0.15, 1.6, and 0.25 μg/ml, respectively) was finally added, and the mixture was reacted at 30° C. for 30 minutes. The test substance concentrations in the reaction solutions are 10000, 3000, 1000, 300, 100, 30, 10, 3, 1, 0.3, 0.1, and 0.01 nM.
(§3) Thereafter, 15 μL of each detection solution (62.5 nM Streptavidin-XL665 (Cisbio Bioassays SAS), […] STK antibody-Cryptate (Cisbio Bioassays SAS), 50 mM HEPES (pH 7.0), 0.8 M KF, 0.1% Bovine Serum Albumin, 20 mM ethylenediaminetetraacetic acid) was added to each well. After stirring, the mixture was reacted at 30° C. for 1 hour. Absorbance (OD620, OD665) at 620 and 665 nm was measured with a microplate reader (SpectraMax M5e, Molecular Devices, LLC).
(§4) Non-linear regression analysis was performed by an SAS system (SAS Institute Inc.) using the ratio (OD665/OD620) of the measured absorbance to calculate a test substance concentration (IC50) that inhibits PIM1 serine/threonine kinase activity by 50%.
(§5) For the compounds with the following Example numbers, in addition to the above PIM1 serine/threonine kinase activity (IC50), test substance concentrations (IC50) that inhibit PIM2 serine/threonine kinase activity and PIM3 serine/threonine kinase activity by 50% were calculated.

For test [3], the target named is T2, PIM3 serine/threonine kinase (Homo sapiens, UniProt Q86V86).
T2 construct: purchased Carna Bioscience, Inc
The test can be described thus: PIM3 serine/threonine kinase inhibitory effect. It counts as biochemical. The following applies: PIM3 serine/threonine kinase activity; ATP 10 μM; 30° C., 30 minutes. As for the experimental part:
as §1, §2, §3, §4, §5

The target in test [4] is T3, PIM1 serine/threonine kinase (Homo sapiens, UniProt P11309).
T3 construct: purchased Carna Bioscience, Inc
As to the kind of experiment: PIM1 serine/threonine kinase inhibitory effect. The format is biochemical. The following applies: PIM1 serine/threonine kinase activity; ATP 40 μM; 30° C., 30 minutes. In short, it runs like this:
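Recombinant PIM1 (0.15 μg/ml final) with 0.5 μM biotinylated substrate and 40 μM ATP in pH 7.0 HEPES/MgCl2 buffer, 30 min at 30° C. Compound range was 0.01–10000 nM final, n=2. HTRF detection with streptavidin-XL665 and anti-phospho antibody-cryptate, 1 h; IC50 from non-linear regression of the 665/620 ratio.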

The subject of test [5] is graft-versus-host disease model CB6F1 mice. As to the kind of experiment: Lymphocyte proliferation inhibitory effect using graft-versus-host disease model animals (splenomegaly formation). It counts as in vivo. The following applies: Mus musculus, 240 h, oral, twice a day for 10 days, GVHD model CB6F1 mice, read-out: Inhibition rate (%) (splenomegaly formation); for inhibition in vivo at 10 mg/kg: single dose 10 mg/kg; for inhibition in vivo at 20 mg/kg: single dose 20 mg/kg. The protocol:
BALB/c mice (8-week-aged female) were euthanized, and then the spleen was removed from each mouse. Then, hemolysis treatment was performed to isolate spleen cells. The obtained spleen cells were intravenously transplanted into CB6F1 mice (8-week-aged female), which are C57BL/6 and BALB/c F1 mice, to prepare a model, and splenomegaly was induced. For transplantation, spleen cells for 1.2 BALB/c mouse were used for one CB6F1 mouse.
Each test substance shown in Table 64 was weighed and dissolved in a 0.5% methyl cellulose solution, thereby preparing test substance solutions of 0.3 to 10 mg/mL.
A vehicle (0.5% methyl cellulose solution) or test substance was orally administered to each CB6F1 mouse after transplantation at a dose of 3 to 50 mg/kg in terms of body weight twice a day for 10 days from the day after transplantation. The mouse was euthanized on the 11th day from the start of administration, then the spleen was removed therefrom, and the wet weight of the spleen was measured. For each of CB6F1 mice that had not undergone transplantation as a control group, the wet weight of the spleen was also measured.
The splenomegaly formation inhibition rate when the spleen weights of the mice to which the vehicle was administered after transplantation and the mice on which transplantation had not been performed were 0% and 100%, respectively, was calculated.

T1 sequence (Q9P1W9 whole entry): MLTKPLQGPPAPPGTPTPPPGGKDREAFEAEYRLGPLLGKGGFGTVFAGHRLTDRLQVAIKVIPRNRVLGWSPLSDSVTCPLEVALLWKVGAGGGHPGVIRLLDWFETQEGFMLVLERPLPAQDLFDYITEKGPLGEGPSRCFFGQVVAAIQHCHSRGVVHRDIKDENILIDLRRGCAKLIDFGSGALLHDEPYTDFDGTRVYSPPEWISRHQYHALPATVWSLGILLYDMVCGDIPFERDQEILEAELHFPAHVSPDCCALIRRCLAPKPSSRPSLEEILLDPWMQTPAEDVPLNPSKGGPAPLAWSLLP
T3 sequence (P11309 whole entry): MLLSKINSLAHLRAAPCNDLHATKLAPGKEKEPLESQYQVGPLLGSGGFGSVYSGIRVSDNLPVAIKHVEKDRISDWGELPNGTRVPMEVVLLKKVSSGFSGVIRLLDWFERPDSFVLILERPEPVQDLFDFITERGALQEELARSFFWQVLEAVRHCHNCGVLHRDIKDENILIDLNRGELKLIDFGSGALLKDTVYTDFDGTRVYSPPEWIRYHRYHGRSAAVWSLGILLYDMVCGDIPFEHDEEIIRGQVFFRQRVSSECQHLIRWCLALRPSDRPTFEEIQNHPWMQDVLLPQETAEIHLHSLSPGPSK
Sequence of PIM1 transgenic cells (Ba/F3) (P11309 whole entry, stated change not applied): as the sequence (P11309 whole entry) above

In the case of `N[C@H]1CC[C@H](CNc2cc(-c3n[nH]c(=O)o3)ccc2C(F)(F)F)CC1` [Example 55, 5-[3-({[(1r,4r)-4-aminocyclohexyl]methyl}amino)-4-(trifluoromethyl)phenyl]-1,3,4-oxadiazol-2(3H)-one hydrochloride], the GI50 in test [1] worked out at 34 nM. For the same compound, the IC50 amounted to 14 nM in test [2], 5 nM in test [3] and 0.7 nM in test [4].

As to `N[C@H]1CC[C@H](CNc2cc(-c3n[nH]c(=O)o3)ccc2Cl)CC1` [Example 61, 5-[3-({[(1r,4r)-4-aminocyclohexyl]methyl}amino)-4-chlorophenyl]-1,3,4-oxadiazol-2(3H)-one hydrochloride], in test [1], the GI50 amounted to 44 nM. Besides, the half-maximal inhibitory concentration (IC50) in test [2] was 19 nM; in test [3], 5 nM; in test [4], 1 nM.

For the compound `O=c1[nH]nc(-c2ccc(C(F)(F)F)c(-c3cncc(N4CCNCC4)c3)c2)o1` [Example 25, 5-{3-[5-(piperazin-1-yl)pyridin-3-yl]-4-(trifluoromethyl)phenyl}-1,3,4-oxadiazol-2(3H)-one dihydrochloride], the IC50 turned out to be 770 nM in test [2], 740 nM in test [3] and 180 nM in test [4].

With `N[C@H]1CC[C@H](CNc2cc(-c3n[nH]c(=O)o3)ccc2OC(F)(F)F)CC1` [Example 66, 5-[3-({[(1r,4r)-4-aminocyclohexyl]methyl}amino)-4-(trifluoromethoxy)phenyl]-1,3,4-oxadiazol-2(3H)-one hydrochloride], in test [1], the GI50 turned out to be 190 nM. In addition, the values for the IC50 in test [2], in test [3] and in test [4] were 90 nM, 18 nM and 4.7 nM, respectively.

In the case of `NC[C@H]1CC[C@H](Nc2cc(-c3n[nH]c(=O)o3)ccc2C(F)(F)F)CC1` [Example 37, 5-[3-{[(1r,4r)-4-(aminomethyl)cyclohexyl]amino}-4-(trifluoromethyl)phenyl]-1,3,4-oxadiazol-2(3H)-one hydrochloride], the GI50 in test [1] was 280 nM. In addition, the IC50 in test [2] was determined as 11 nM; in test [3], 10 nM; in test [4], 2 nM.

For `N[C@H]1CC[C@H](CNc2cc(-c3n[nH]c(=O)o3)ccc2Br)CC1` [Example 68, 5-[3-({[(1r,4r)-4-aminocyclohexyl]methyl}amino)-4-bromophenyl]-1,3,4-oxadiazol-2(3H)-one hydrochloride], the GI50 in test [1] amounted to 61 nM. In addition, the IC50 came to 18 nM in test [2], 5 nM in test [3] and 1.4 nM in test [4].

As to `N[C@H]1CC[C@H](Nc2cc(-c3n[nH]c(=O)o3)ccc2C(F)(F)F)CC1` [Example 34, 5-[3-{[(1r,4r)-4-aminocyclohexyl]amino}-4-(trifluoromethyl)phenyl]-1,3,4-oxadiazol-2(3H)-one hydrochloride], the GI50 in test [1] was found to be 910 nM. In addition, the figures for the IC50 in test [2], in test [3] and in test [4] were 25 nM, 16 nM and 4 nM, respectively.

`C[C@H](Nc1cc(-c2n[nH]c(=O)o2)cc(F)c1C(F)(F)F)[C@H]1CC[C@H](N)CC1` [Example 151, 5-[3-({(1S)-1-[(1r,4S)-4-aminocyclohexyl]ethyl}amino)-5-fluoro-4-(trifluoromethyl)phenyl]-1,3,4-oxadiazol-2(3H)-one hydrochloride]: the GI50 in test [1] turned out to be 17 nM. For the same compound, in test [5], the inhibition in vivo at 10 mg/kg is 33.8% and the inhibition in vivo at 20 mg/kg is 40.3%. The compound also displayed an IC50 in test [4] of 1.8 nM.

Consider `CC(Nc1cc(-c2n[nH]c(=O)o2)ccc1C(F)(F)F)C1CCNCC1` (stereo not drawn) [Example 52, 5-[3-{[1-(piperidin-4-yl)ethyl]amino}-4-(trifluoromethyl)phenyl]-1,3,4-oxadiazol-2(3H)-one hydrochloride], for which the GI50 in test [1] was found to be 59 nM. Besides, the figures for the 50% inhibitory concentration (IC50) in test [2], in test [3] and in test [4] were 19 nM, 12 nM and 4.2 nM, respectively.

`C[C@@H](Nc1cc(-c2n[nH]c(=O)o2)ccc1C(F)(F)F)C1CCNCC1` [Example 59, 5-[3-{[(1R)-1-(piperidin-4-yl)ethyl]amino}-4-(trifluoromethyl)phenyl]-1,3,4-oxadiazol-2(3H)-one hydrochloride]: in test [1], the GI50 is 320 nM. Moreover, the IC50 in test [2] is 98 nM; in test [3], 85 nM; in test [4], 16 nM.

Regarding `NCc1cccc(-c2cc(-c3n[nH]c(=O)o3)ccc2Cl)c1` [Example 18, 5-[3′-(aminomethyl)-6-chloro[1,1′-biphenyl]-3-yl]-1,3,4-oxadiazol-2(3H)-one hydrochloride], the 50% inhibitory concentration (IC50) in test [2] amounted to 220 nM; in test [3], 340 nM; in test [4], 64 nM.

For `C[C@H](Nc1cc(-c2n[nH]c(=O)o2)ccc1C(F)(F)F)[C@H]1C[C@@H](N)C1` [Example 145, 5-[3-({(1S)-1-[(1s,3R)-3-aminocyclobutyl]ethyl}amino)-4-(trifluoromethyl)phenyl]-1,3,4-oxadiazol-2(3H)-one hydrochloride], the GI50 in test [1] was determined as 61 nM. Besides, in test [5], the inhibition in vivo at 10 mg/kg amounted to 27.3% and the inhibition in vivo at 20 mg/kg worked out at 35.6%. For the same compound, the IC50 in test [4] is 4 nM.

`C[C@@H]1CNCC[C@@H]1[C@H](C)Nc1cc(-c2n[nH]c(=O)o2)cc(F)c1C(F)(F)F` [Example 210, 5-[3-fluoro-5-({(1S)-1-[(3S,4S)-3-methylpiperidin-4-yl]ethyl}amino)-4-(trifluoromethyl)phenyl]-1,3,4-oxadiazol-2(3H)-one]: in test [1], the GI50 was 15 nM. Besides, in test [5], the inhibition in vivo at 10 mg/kg was determined as 44.9% and the inhibition in vivo at 20 mg/kg worked out at 48.4%. The compound also gave an IC50 in test [4] of 1.3 nM.

Regarding `C[C@H](Nc1cc(-c2n[nH]c(=O)o2)cc(Br)c1Cl)C1CCNCC1` [Example 97, 5-(3-bromo-4-chloro-5-{[(1S)-1-(piperidin-4-yl)ethyl]amino}phenyl)-1,3,4-oxadiazol-2(3H)-one dihydrochloride], in test [1], the GI50 was determined as 55 nM. In test [5] (single dose 50 mg/kg), the inhibition in vivo at 50 mg/kg came out at 33%. The IC50 in test [4] came to 1.2 nM.

On to `Cc1c(F)cc(-c2n[nH]c(=O)o2)cc1N[C@@H](C)[C@H]1CCNC[C@H]1C` [Example 228], for which the GI50 in test [1] amounted to 15 nM. Also, the inhibition in vivo at 6 mg/kg in test [5] (single dose 6 mg/kg) was found to be 36.7%. The inhibition in vivo at 20 mg/kg in test [5] was found to be 33.3%. Further, the concentration for half-maximal inhibition (IC50) in test [4] was 4.7 nM.
